# Reference: US5128366A, “Pyrrole derivatives” (Shinogi & Co., Ltd., priority 1990, dated 1992)
# Molecular target: T1, HMG-CoA reductase (Rattus norvegicus, UniProt P51639)
# T1 construct: from tissue; host or cells: liver microsomes of Sprague-Dawley rats fed 2% cholestyramine for 2 weeks
# T1 sequence (P51639 1-887): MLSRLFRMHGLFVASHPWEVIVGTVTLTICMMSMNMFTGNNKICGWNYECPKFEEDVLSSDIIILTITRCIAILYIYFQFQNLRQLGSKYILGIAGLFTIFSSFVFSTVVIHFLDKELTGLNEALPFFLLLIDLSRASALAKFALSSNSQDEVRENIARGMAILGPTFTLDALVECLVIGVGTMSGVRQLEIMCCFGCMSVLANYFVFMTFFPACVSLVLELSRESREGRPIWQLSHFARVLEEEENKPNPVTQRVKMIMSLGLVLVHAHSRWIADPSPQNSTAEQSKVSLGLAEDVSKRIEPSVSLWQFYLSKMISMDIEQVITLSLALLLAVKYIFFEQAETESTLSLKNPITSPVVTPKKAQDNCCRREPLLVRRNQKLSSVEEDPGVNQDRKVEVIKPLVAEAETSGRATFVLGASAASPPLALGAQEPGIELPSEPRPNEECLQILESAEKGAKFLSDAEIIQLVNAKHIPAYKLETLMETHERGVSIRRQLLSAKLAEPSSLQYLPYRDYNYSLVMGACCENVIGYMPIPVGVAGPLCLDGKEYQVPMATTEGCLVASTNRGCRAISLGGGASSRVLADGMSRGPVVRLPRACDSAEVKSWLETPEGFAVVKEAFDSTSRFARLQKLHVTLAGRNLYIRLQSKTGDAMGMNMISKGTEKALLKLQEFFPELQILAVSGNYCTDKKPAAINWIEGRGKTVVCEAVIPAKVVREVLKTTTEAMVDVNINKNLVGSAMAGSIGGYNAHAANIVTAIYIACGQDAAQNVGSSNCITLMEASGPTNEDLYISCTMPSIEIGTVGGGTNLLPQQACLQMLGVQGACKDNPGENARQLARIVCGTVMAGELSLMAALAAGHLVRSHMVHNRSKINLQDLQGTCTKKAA
# Assay: HMG-CoA reductase inhibitory effect in rat liver microsome, [3-14C]HMG-CoA, TLC and scintillation counting
# Type: biochemical
# Conditions: comparative activity, Mevinolin (sodium salt) as reference drug = 100, sodium salt of the test compound, 37° C., 30 minutes
# Experimental: (1) Preparation of Rat Liver Microsome
# Sprague-Dawley rats, which were in free access to ordinary diets containing 2% cholestyramine and water for 2 weeks, were used for the preparation of rat liver microsome, which were then purified according to the manner by Kuroda et al., Biochem. Biophys. Act, 486, 70 (1977). The microsomal fraction obtained by centrifugation at 105000×g was washed once with a buffered solution containing 15 mM nicotinamide and 2 mM magnesium chloride (in a 100 mM potassium phosphate buffer, pH 7.4). It was homogenized with a buffer containing nicotinamide and magnesium chloride at the same weight as the liver employed. The thus obtained homogenate was cooled down to and kept at -80° C.
# (2) Measurement of the HMG-CoA Reductase Inhibitory Activities
# The rat liver microsome (100 μl), which was preserved at -80° C., was […] at 0° C. and diluted with 0.7 ml of a cold potassium phosphate buffer (100 mM, pH 7.4 ). This was mixed with 0.8 ml of 50 mM EDTA (buffered with the aforementioned potassium phosphate buffer) and 0.4 ml of 100 mM dithiothreitol solution (buffered with the aforementioned potassium phosphate buffer), and the mixture was kept at 0° C. The microsome solution, 1.675 ml, was mixed with 670 μl of 25 mM NADPH (buffered with the aforementioned potassium phosphate buffer), and the solution was added to the solution of 0.5 mM [3^-14 C]HMG-CoA (3 mCi/mmol). Potassium phosphate buffer of sodium salt of the test compound 5 μl is added to the mixture of microsome and HMG-CoA 45 μl, and the resulting mixture was incubated at 37° C. for 30 minutes and cooled. After termination of the reaction by addition of 10 μl of 2N-HCl, the mixture was incubated again at 37° C. for 15 minutes and then 30 μl of this mixture was applied to thin-layer chromatography with silica gel of 0.5 mm in thickness (Merck AG, Art 5744). The chromatograms were developed in toluene/acetone (1/1) and the sections, whose Rf value was between 0.45 to 0.6, were scraped. The obtained products were put into a vial containing 8 ml of scintillator to measure specific radio-activity with a scintillation counter.
row,SMILES,HMG-CoA reductase inhibitory activities
1,CC(C)c1c(/C=C/[C@@H](O)C[C@@H](O)CC(=O)O)c(-c2ccc(F)cc2)cn1S(C)(=O)=O (relative stereo) [Ia-10],263
2,"CC(C)c1c(/C=C/[C@@H](O)C[C@@H](O)CC(=O)O)c(-c2ccc(F)cc2)c(-c2ccc(F)cc2)n1S(C)(=O)=O (relative stereo) [Ia-17, 7-.upsilon.4,5-Di-(4-fluorophenyl)-2-isopropyl-1-(methylsulfonyl)-pyrrol-3-yl]-(3R*,5S*)-dihydroxy-(E)-6-heptenoic acid]",293
3,"CCS(=O)(=O)n1c(C)c(-c2ccc(F)cc2)c(/C=C/[C@@H](O)C[C@@H](O)CC(=O)O)c1C(C)C (relative stereo) [Ia-18, 7-[4-(4-Fluorophenyl)-2-isopropyl-5-methyl-(1-ethylsulfonyl)pyrrol-3-yl]-(3R*,5S*)-dihydroxy-(E)-6-heptenate]",228
4,"Cc1c(-c2ccc(F)cc2)c(/C=C/[C@@H](O)C[C@@H](O)CC(=O)O)c(C(C)C)n1S(=O)(=O)Cc1ccccc1 (relative stereo) [Ia-19, 7-[4-(4-Fluorophenyl)-2-isopropyl-5-methyl-(1-benzylsulfonyl)-pyrrol-3-yl]-(3R*,5S*)-dihydroxy-(E)-6-heptenate]",105
5,"Cc1c(-c2ccc(F)cc2)c(/C=C/[C@@H](O)C[C@@H](O)CC(=O)O)c(C(C)C)n1S(C)(=O)=O [Id-2, (+) Sodium 7-[4-(4-fluorophenyl)-2-isopropyl-5-methyl-(1-methylsulfonyl)pyrrol-3-yl]-(3R,5S)-dihydroxy-(E)-6-heptenate]",418
6,"CC[C@H](C)C(=O)O[C@H]1C[C@@H](C)C=C2C=C[C@H](C)[C@H](CC[C@@H](O)C[C@@H](O)CC(=O)O)[C@H]21 [Mevinolin Na, Mevinolin, reference compound]",100
